Experimental data: US20190031676A1, “ANTIBACTERIAL ANNULATED PYRROLIDIN-2-ONE DERIVATIVES” (priority 2015, published 2019)
≈ marks a conversion by molar mass, not a printed value. Read-outs that look alike come from different tables or passages of the source.

Tests used:
Format in all cases: cell-based
wild-type E. coli A-1261 = test: MIC against wild-type E. coli A-1261 with or without alkaline phosphatase or esterase (prodrug activation); settings: Escherichia coli
Method: Minimal Inhibitory Concentrations (MICs; mg/L) were determined in cation-adjusted Mueller-Hinton Broth by a microdilution method following the description given in “Methods for Dilution Antimicrobial Susceptibility Tests for Bacteria that grow Aerobically”, Approved standard, 7th ed., Clinical and Laboratory Standards Institute (CLSI) Document M7-A7, Wayne, Pa., USA (2006). The compounds of Examples 4 and 16 were tested against wild-type E. coli A-1261 in the absence of alkaline phosphatase or esterase, in the presence of an alkaline phosphatase, and in the presence of an esterase. The corresponding antibacterial test results are given in Table 2 hereafter (MICs in mg/L).

K. pneumoniae A-651 = test: Bacterial growth minimal inhibitory concentration (microdilution, cation-adjusted Mueller-Hinton Broth); settings: Klebsiella pneumoniae, A651; multiply-resistant strain (in particular quinolone-resistant)
Method: (§1) Minimal Inhibitory Concentrations (MICs; mg/L) were determined in cation-adjusted Mueller-Hinton Broth by a microdilution method following the description given in “Methods for Dilution Antimicrobial Susceptibility Tests for Bacteria that grow Aerobically”, Approved standard, 7th ed., Clinical and Laboratory Standards Institute (CLSI) Document M7-A7, Wayne, Pa., USA (2006).
(§2) All Example compounds were tested against several Gram-positive and Gram-negative bacteria. […] K. pneumoniae A-651 is a multiply-resistant strain (in particular quinolone-resistant), while E. coli ATCC25922 and P. aeruginosa ATCC27853 are quinolone-sensitive strains.

P. aeruginosa ATCC27853 = test: as above; settings: Pseudomonas aeruginosa, ATCC27853; quinolone-sensitive strain
Method: as §1, §2

E. coli ATCC25922 = test: as above; settings: Escherichia coli, ATCC25922; quinolone-sensitive strain
Method: as §1, §2

[1] = alkaline phosphatase 2 i.U./mL, read-out: MIC for E. coli A-1261 In the presence of an alkaline phosphatase (2 i.U./mL)
[2] = esterase 10 i.U./mL, read-out: MIC for E. coli A-1261 In the presence of an esterase (10 i.U./mL)
[3] = no alkaline phosphatase or esterase, read-out: MIC for E. coli A-1261 In the absence of alkaline phosphatase or esterase

| MIC (wild-type E. coli A-1261; [1]) [µg/mL] | MIC (wild-type E. coli A-1261; [2]) [µg/mL] | MIC (wild-type E. coli A-1261; [3]) [µg/mL] | MIC (K. pneumoniae A-651) [µg/mL] | MIC (P. aeruginosa ATCC27853) [µg/mL] | MIC (E. coli ATCC25922) [µg/mL] | SMILES |
| --- | --- | --- | --- | --- | --- | --- |
| 0.25 | 0.25 | 0.125 (≈ 0.267 µM) | 0.5 (≈ 1.07 µM) | 0.5 (≈ 1.07 µM) | 0.25 (≈ 0.534 µM) | C[C@@](CCN1Cc2cc(C#CC#C[C@H]3C[C@]3(F)CO)sc2C1=O)(C(=O)NO)S(C)(=O)=O [Example 4, (2R)-4-(2-(((1R,2R)-2-fluoro-2-(hydroxymethyl)cyclopropyl)buta-1,3-diyn-1-yl)-6-oxo-4,6-dihydro-5H-thieno[2,3-c]pyrrol-5-yl)-N-hydroxy-2-methyl-2-(methylsulfonyl)butanamide] |
| 0.25 | > 8 | > 8 |  |  |  | C[C@@](CCN1Cc2cc(C#CC#C[C@H]3C[C@]3(F)COP(=O)(O)O)sc2C1=O)(C(=O)NO)S(C)(=O)=O [Example 16, ((1R,2R)-1-fluoro-2-((5-((3R)-4-(hydroxyamino)-3-methyl-3-(methylsulfonyl)-4-oxobutyl)-6-oxo-5,6-dihydro-4H-thieno[2,3-c]pyrrol-2-yl)buta-1,3-diyn-1-yl)cyclopropyl)methyl dihydrogen phosphate] |
|  |  |  | 0.25 (≈ 0.519 µM) | 1 (≈ 2.08 µM) | 0.125 (≈ 0.26 µM) | CN1C[C@H](C#CC#Cc2cc3c(s2)C(=O)N(CC[C@](C)(C(=O)NO)S(C)(=O)=O)C3)[C@H]1CF [Example 41, (2R)-4-(2-(((2S,3S)-2-(fluoromethyl)-1-methylazetidin-3-yl)buta-1,3-diyn-1-yl)-6-oxo-4,6-dihydro-5H-thieno[2,3-c]pyrrol-5-yl)-N-hydroxy-2-methyl-2-(methylsulfonyl)butanamide] |
|  |  |  | 0.125 (≈ 0.289 µM) | 2 (≈ 4.62 µM) | ≤ 0.031 | C[C@@](CCN1Cc2cc(C#Cc3ccccc3)sc2C1=O)(C(=O)NO)S(C)(=O)=O [Example 42, (2R)—N-hydroxy-2-methyl-2-(methylsulfonyl)-4-(6-oxo-2-(phenylethynyl)-4,6-dihydro-5H-thieno[2,3-c]pyrrol-5-yl)butanamide] |
